Measured values: US8338598B2, “Herbicidal pyrido[2,3-B]pyrazines and their use as herbicides” (Syngenta Limited, priority 2008, dated 2012)

Legend:
Assay type in all cases: in vivo
test plants = experiment: Example B1 herbicidal action, post-emergence, overall statement on the test plants; conditions: Example B1 protocol, 1000 g/ha, result in words
Description: Seeds of a variety of test species were sown in sterilised standard soil in seed trays each having 96 cells. After cultivation for 8 to 9 days cultivation (post-emergence) under controlled conditions in a climatic chamber (cultivation at 23/17° C., day/night; 13 hours light; 50-60% humidity), the plants were treated with an aqueous spray solution of 1000 mg/l of the active ingredient dissolved in 10% DMSO (dimethyl sulfoxide, CAS RN 67-68-5) as a solvent, equivalent to 1000 g/ha. The plants were grown in the climatic chamber after application at (24/19° C., day/night; 13 hours light; 50-60% humidity) and watered twice daily. After 9 days until the test was evaluated (10=total damage to plant, 0=no damage to plant)

Amaranthus retroflexus [1] = experiment: Example B2 herbicidal action, pre-emergence, pots in glasshouse; conditions: 1000 g/ha, evaluated after 13 days, 10=total damage to plant, 0=no damage to plant
Description: (§1) Seeds of a variety of test species were sown in standard soil in pots. After cultivation for one day (pre-emergence) or after 8 days cultivation (post-emergence) under controlled conditions in a glasshouse (at 24/16° C., day/night; 14 hours light; 65% humidity), the plants were sprayed with an aqueous spray solution derived from the formulation of the technical active ingredient in acetone/water (50:50) solution containing 0.5% Tween 20 (polyoxyethelyene sorbitan monolaurate, CAS RN 9005-64-5). The test plants were then grown in a glasshouse under controlled conditions in a glasshouse (at 24/16° C., day/night; 14 hours light; 65% humidity) and watered twice daily. After 13 days, the test was evaluated (10=total damage to plant; 0=no damage to plant).

Echinochloa crus-galli [2] = experiment: as above; conditions: 1000 g/ha, evaluated after 13 days, 10=total damage to plant, 0=no damage to plant
Description: as §1

Ipomea hederaceae [3] = experiment: as above; conditions: 1000 g/ha, evaluated after 13 days, 10=total damage to plant, 0=no damage to plant
Description: as §1

Setaria faberi [4] = experiment: as above; conditions: 1000 g/ha, evaluated after 13 days, 10=total damage to plant, 0=no damage to plant
Description: as §1

Solanum nigrum [5] = experiment: as above; conditions: 1000 g/ha, evaluated after 13 days, 10=total damage to plant, 0=no damage to plant
Description: as §1

Amaranthus retroflexus [6] = experiment: Example B2 herbicidal action, post-emergence, pots in glasshouse; conditions: 1000 g/ha, evaluated after 13 days, 10=total damage to plant, 0=no damage to plant
Description: as §1

Echinochloa crus-galli [7] = experiment: as above; conditions: 1000 g/ha, evaluated after 13 days, 10=total damage to plant, 0=no damage to plant
Description: as §1

Ipomea hederaceae [8] = experiment: as above; conditions: 1000 g/ha, evaluated after 13 days, 10=total damage to plant, 0=no damage to plant
Description: as §1

Setaria faberi [9] = experiment: as above; conditions: 1000 g/ha, evaluated after 13 days, 10=total damage to plant, 0=no damage to plant
Description: as §1

Solanum nigrum [10] = experiment: as above; conditions: 1000 g/ha, evaluated after 13 days, 10=total damage to plant, 0=no damage to plant
Description: as §1

Oc1nc2nccnc2c(O)c1-c1ncc(Cl)cc1Cl [Compound A1, 7-(3,5-dichloro-pyrid-2-yl)-pyrido[2,3-b]pyrazine-6,8-diol]
damage to the test plants (test plants): little or no damage

CCOC(=O)Oc1c(-c2ncc(Cl)cc2Cl)c(=O)[nH]c2nccnc12 [Compound A3, Carbonic acid 7-(3,5-dichloro-pyrid-2-yl)-6-oxo-5,6-dihydro-pyrido[2,3-b]pyrazin-8-yl ester ethyl ester]
damage to the test plants (test plants): little or no damage

CS(=O)(=O)Oc1c(-c2ncc(Cl)cc2Cl)c(=O)[nH]c2nccnc12 [Compound A4, methanesulfonic acid 7-(3,5-dichloro-pyrid-2-yl)-6-oxo-5,6-dihydro-pyrido[2,3-b]pyrazin-8-yl ester]
damage to the test plants (test plants): little or no damage

CC(C)C(=O)Oc1c(-c2ncc(Cl)cc2Cl)c(O)nc2nccnc12 [Compound A5, isobutyric acid 7-(3,5-dichloro-pyrid-2-yl)-6-oxo-5,6-dihydro-pyrido[2,3-b]pyrazin-8-yl ester]
damage to the test plants (test plants): little or no damage

Cn1c(=O)c(-c2c(Cl)cncc2Cl)c(OC(=O)C(C)(C)C)c2nccnc21 [Compound A9, 2,2-Dimethyl-propionic acid 7-(3,5-dichloro-pyrid-4-yl)-5-methyl-6-oxo-5,6-dihydro-pyrido[2,3-b]pyrazin-8-yl ester]
AMARE, damage to plant (Amaranthus retroflexus [1]): 0 | ECHCG, damage to plant (Echinochloa crus-galli [2]): 5 | IPOHE, damage to plant (Ipomea hederaceae [3]): 5 | SETFA, damage to plant (Setaria faberi [4]): 0 | SOLNI, damage to plant (Solanum nigrum [5]): 1 | AMARE, damage to plant (Amaranthus retroflexus [6]): 8 | ECHCG, damage to plant (Echinochloa crus-galli [7]): 7 | IPOHE, damage to plant (Ipomea hederaceae [8]): 8 | SETFA, damage to plant (Setaria faberi [9]): 4 | SOLNI, damage to plant (Solanum nigrum [10]): 8

CCn1c(=O)c(-c2c(Cl)cncc2Cl)c(OC(=O)C(C)(C)C)c2nccnc21 [Compound A10, 2,2-Dimethyl-propionic acid 7-(3,5-dichloro-pyrid-4-yl)-5-ethyl-6-oxo-5,6-dihydro-pyrido[2,3-b]pyrazin-8-yl ester]
AMARE, damage to plant (Amaranthus retroflexus [1]): 0 | ECHCG, damage to plant (Echinochloa crus-galli [2]): 5 | IPOHE, damage to plant (Ipomea hederaceae [3]): 2 | SETFA, damage to plant (Setaria faberi [4]): 1 | SOLNI, damage to plant (Solanum nigrum [5]): 2 | AMARE, damage to plant (Amaranthus retroflexus [6]): 9 | ECHCG, damage to plant (Echinochloa crus-galli [7]): 7 | IPOHE, damage to plant (Ipomea hederaceae [8]): 8 | SETFA, damage to plant (Setaria faberi [9]): 6 | SOLNI, damage to plant (Solanum nigrum [10]): 9

CC(C)(C)C(=O)Oc1c(-c2c(Cl)cncc2Cl)c(=O)n(CC(F)F)c2nccnc12 [Compound A11, 2,2-Dimethyl-propionic acid 7-(3,5-dichloro-pyrid-4-yl)-5-(2,2-difluoro-ethyl)-6-oxo-5,6-dihydro-pyrido[2,3-b]pyrazin-8-yl ester]
AMARE, damage to plant (Amaranthus retroflexus [1]): 8 | ECHCG, damage to plant (Echinochloa crus-galli [2]): 8 | IPOHE, damage to plant (Ipomea hederaceae [3]): 5 | SETFA, damage to plant (Setaria faberi [4]): 7 | SOLNI, damage to plant (Solanum nigrum [5]): 8 | AMARE, damage to plant (Amaranthus retroflexus [6]): 9 | ECHCG, damage to plant (Echinochloa crus-galli [7]): 8 | IPOHE, damage to plant (Ipomea hederaceae [8]): 8 | SETFA, damage to plant (Setaria faberi [9]): 8 | SOLNI, damage to plant (Solanum nigrum [10]): 8

O=c1c(-c2c(Cl)cncc2Cl)c(O)c2nccnc2n1CC(F)F [Compound A12, 7-(3,5-Dichloro-pyrid-4-yl)-5-(2,2-difluoro-ethyl)-8-hydroxy-5H-pyrido[2,3-b]pyrazin-6-one]
AMARE, damage to plant (Amaranthus retroflexus [1]): 4 | ECHCG, damage to plant (Echinochloa crus-galli [2]): 6 | IPOHE, damage to plant (Ipomea hederaceae [3]): 5 | SETFA, damage to plant (Setaria faberi [4]): 4 | SOLNI, damage to plant (Solanum nigrum [5]): 2 | AMARE, damage to plant (Amaranthus retroflexus [6]): 9 | ECHCG, damage to plant (Echinochloa crus-galli [7]): 8 | IPOHE, damage to plant (Ipomea hederaceae [8]): 9 | SETFA, damage to plant (Setaria faberi [9]): 8 | SOLNI, damage to plant (Solanum nigrum [10]): 10

CC(C)(C)C(=O)Oc1c(-c2ccc(Cl)nc2Cl)c(=O)[nH]c2nccnc12 [Compound A14, 2,2-dimethyl-propionic acid 7-(2,6-dichloro-pyrid-3-yl)-6-oxo-5,6-dihydro-pyrido[2,3-b]pyrazin-8-yl ester]
AMARE, damage to plant (Amaranthus retroflexus [1]): 0 | ECHCG, damage to plant (Echinochloa crus-galli [2]): 4 | IPOHE, damage to plant (Ipomea hederaceae [3]): 0 | SETFA, damage to plant (Setaria faberi [4]): 2 | SOLNI, damage to plant (Solanum nigrum [5]): 0 | AMARE, damage to plant (Amaranthus retroflexus [6]): 5 | ECHCG, damage to plant (Echinochloa crus-galli [7]): 6 | IPOHE, damage to plant (Ipomea hederaceae [8]): 4 | SETFA, damage to plant (Setaria faberi [9]): 7 | SOLNI, damage to plant (Solanum nigrum [10]): 7

CC(C)(C)C(=O)Oc1c(-c2ccc(Cl)nc2Cl)c(=O)n(CC(F)F)c2nccnc12 [Compound A16, 2,2-dimethyl-propionic acid 7-(2,6-dichloro-pyrid-3-yl)-5-(2,2-difluoro-ethyl)-6-oxo-5,6-dihydro-pyrido[2,3-b]pyrazin-8-yl ester]
AMARE, damage to plant (Amaranthus retroflexus [1]): 0 | ECHCG, damage to plant (Echinochloa crus-galli [2]): 2 | IPOHE, damage to plant (Ipomea hederaceae [3]): 2 | SETFA, damage to plant (Setaria faberi [4]): 0 | SOLNI, damage to plant (Solanum nigrum [5]): 5 | AMARE, damage to plant (Amaranthus retroflexus [6]): 10 | ECHCG, damage to plant (Echinochloa crus-galli [7]): 6 | IPOHE, damage to plant (Ipomea hederaceae [8]): 7 | SETFA, damage to plant (Setaria faberi [9]): 6 | SOLNI, damage to plant (Solanum nigrum [10]): 9

CC(C)(C)C(=O)Oc1c(-c2c(Cl)ccnc2Cl)c(=O)[nH]c2nccnc12 [Compound A17, 2,2-Dimethyl-propionic acid 7-(2,4-dichloro-pyrid-3-yl)-6-oxo-5,6-dihydro-pyrido[2,3-b]pyrazin-8-yl ester]
damage to the test plants (test plants): little or no damage

CC(C)(C)C(=O)Oc1c(-c2c(Cl)ccnc2Cl)c(=O)n(CC(F)F)c2nccnc12 [Compound A18, 2,2-Dimethyl-propionic acid 7-(2,4-dichloro-pyrid-3-yl)-5-(2,2-difluoro-ethyl)-6-oxo-5,6-dihydro-pyrido[2,3-b]pyrazin-8-yl ester]
AMARE, damage to plant (Amaranthus retroflexus [1]): 6 | ECHCG, damage to plant (Echinochloa crus-galli [2]): 7 | IPOHE, damage to plant (Ipomea hederaceae [3]): 6 | SETFA, damage to plant (Setaria faberi [4]): 5 | SOLNI, damage to plant (Solanum nigrum [5]): 9 | AMARE, damage to plant (Amaranthus retroflexus [6]): 10 | ECHCG, damage to plant (Echinochloa crus-galli [7]): 7 | IPOHE, damage to plant (Ipomea hederaceae [8]): 9 | SETFA, damage to plant (Setaria faberi [9]): 7 | SOLNI, damage to plant (Solanum nigrum [10]): 9

O=c1[nH]c2nccnc2c(O)c1-c1ncc(Cl)cc1F [Compound A28]
damage to the test plants (test plants): little or no damage

O=c1[nH]c2nccnc2c(O)c1-c1ncc(C(F)(F)F)cc1Cl [Compound A29]
damage to the test plants (test plants): little or no damage

Cc1nc(Cl)sc1-c1c(O)c2nccnc2[nH]c1=O [Compound B1, 7-(2-chloro-4-methyl-thiazol-5-yl)-8-hydroxy-5H-pyrido[2,3-b]pyrazin-6-one]
damage to the test plants (test plants): little or no damage

Cc1noc(-c2c(OC(=O)C(C)C)c3nccnc3n(C)c2=O)n1 [Compound B6, isobutyric acid 5-methyl-7-(3-methyl-1,2,4-oxadiazol-5-yl)-6-oxo-5,6-dihydro-pyrido[2,3-b]pyrazin-8-yl ester]
damage to the test plants (test plants): little or no damage

CC(C)C(=O)Oc1c(-c2cc(C(F)(F)F)no2)c(=O)[nH]c2nccnc12 [Compound B7, isobutyric acid 6-hydroxy-7-(3-trifluoromethyl-isoxazol-5-yl)-pyrido[2,3-b]pyrazin-8-yl ester]
damage to the test plants (test plants): little or no damage

Cc1cc(-c2c(O)c3nccnc3[nH]c2=O)on1 [Compound B13]
damage to the test plants (test plants): little or no damage

Cc1cc(-c2c(O)c3nccnc3[nH]c2=O)[nH]n1 [Compound B14]
damage to the test plants (test plants): little or no damage

O=c1[nH]c2nccnc2c(O)c1-c1ccno1 [Compound B15]
damage to the test plants (test plants): little or no damage

Cc1cc(-c2c(OC(=O)C(C)C)c3nccnc3[nH]c2=O)on1 [Compound B16]
damage to the test plants (test plants): little or no damage

Cc1cc(-c2c(OC(=O)C(C)(C)C)c3nccnc3[nH]c2=O)on1 [Compound B17]
damage to the test plants (test plants): little or no damage

Cc1cc(-c2c(OC(=O)C(C)C)c3nccnc3[nH]c2=O)[nH]n1 [Compound B18]
damage to the test plants (test plants): little or no damage

Cc1cc(-c2c(OC(=O)C(C)(C)C)c3nccnc3[nH]c2=O)[nH]n1 [Compound B19]
damage to the test plants (test plants): little or no damage

CCn1c(=O)c(-c2cc(C)no2)c(OC(=O)C(C)(C)C)c2nccnc21 [Compound B20]
damage to the test plants (test plants): little or no damage

CCn1c(=O)c(-c2cc(C)no2)c(OC(=O)C(C)C)c2nccnc21 [Compound B21]
damage to the test plants (test plants): little or no damage

CCOc1c(-c2cc(C)n(CC)n2)c(=O)n(CC)c2nccnc12 [Compound B22]
damage to the test plants (test plants): little or no damage

Cc1cc(-c2c(O)c3nccnc3[nH]c2=O)n2nc(C)cc2n1 [Compound C1]
damage to the test plants (test plants): little or no damage

Cc1cc(-c2c(OC(=O)C(C)(C)C)c3nccnc3[nH]c2=O)n2nc(C)cc2n1 [Compound C2]
damage to the test plants (test plants): little or no damage

Cc1cc(-c2c(OC(=O)C(C)(C)C)c3nccnc3n(C)c2=O)n2nc(C)cc2n1 [Compound C3]
damage to the test plants (test plants): little or no damage
